Measurements: PMC11347150, “Aurora: a fluorescent deoxyribozyme for high-throughput screening” (Nucleic Acids Research, 2024)

Experiments:
[1] = parameters: method as in PMID 9873685, PMID 18355003; details: pH 10; cited from earlier work
[2] = biological target: Nsp15 (Severe acute respiratory syndrome coronavirus 2, UniProt P0DTD1); details: 1 mM ZnCl2, negative control wells
Protocol: Small molecules from a 1000-member fragment screen library (Maybridge) were transferred to the wells of 384-well plates using an Echo 550 liquid handler. Nsp15 protein in 1 × Nsp15 buffer (50 mM KCl, 20 mM HEPES pH 7.4, 5 mM MnCl2, 0.003% (v/v) Tween20) was then added using a CERTUS Flex liquid handler. After mixing, the Aurora Nsp15 sensor (in 1 × Nsp15 buffer) was added using a CERTUS Flex liquid handler. Reactions were mixed again. Final concentrations were 25 μM Aurora Nsp15 sensor, 400 nM Nsp15 protein, 1 × Nsp15 buffer (50 mM KCl, 20 mM HEPES pH 7.4 and 5 mM MnCl2), 0.003% (v/v) Tween20, and 200 μM small molecule from the fragment screen library in a volume of 20 μl. […] The reaction mixture was incubated at room temperature for 4 h, and fluorescence was measured using a Tecan Spark plate reader. Fluorescence was measured in a black flat bottom 384-well plate (Corning).
The average value of this background was subtracted from the fluorescence values obtained from all other wells. […] Activity of Nsp15 in the presence of small molecules from the fragment screen library was calculated relative to this positive control value. Z-factors ([22]) were calculated for each 384-well plate to determine the quality of the screen. […]

Structure (SMILES) | Brightness (ϵ × Φ) [1] | Extinction coefficient (ϵ) [1] | Maximum emission wavelength (λem) [1] | Maximum excitation wavelength (λmax) [1] | Quantum yield (Φ) [1] | inhibition of Nsp15 [2]
Cc1cc(=O)oc2cc(O)ccc12 [4-MU] | 10 710 M^−1 cm^−1 | 17 000 M^−1 cm^−1 | 450 nm | 360 nm | 0.63 | –
[Cl-].[Cl-].[Zn+2] [ZnCl2] | – | – | – | – | – | inhibited Nsp15
